In US4748122A, “2,5-diketo-D-gluconic acid reductase” (Shionogi & Co., Ltd., priority 1983, dated 1988):

Experiments:
25DKG-Rase [1] = biological target: T1, 25DKG-Rase (Corynebacterium sp. SHS752001, UniProt P15339); experiment: Action, substrate specificity and Km of the purified 25DKG-Rase (general description); type: biochemical, genus Corynebacterium; conditions: for specificities for substrates (reducing action): in the presence of NADPH
Source text: As shown, NADPH is used as a hydrogen donor in the above reaction. Reduced nicotinamide adenine dinucleotide (NADH) may also be used as the hydrogen donor in the above reaction but the reaction velocity in that case is lowered to one two hundred and fiftieth (1/250) or less of that in the reaction where NADPH is used.
The enzymatic activity is spectrophotometrically measured on the basis of the decrease in absorption at 340 nm which corresponds to the oxidation of NADPH as the result of the enzyme reaction at 30° C. in 0.1M Tris buffer (pH 7) containing 0.1 mM NADPH and 3.3 mM Ca-25DKG. One unit of the enzymatic activity is defined as that oxidizes 1 μmole of NADPH for one minute.

25DKG-Rase [2] = biological target: T2, 25DKG-Rase (Corynebacterium sp., UniProt P15339); experiment: Spectrophotometric enzymatic activity (decrease in absorption at 340 nm), purified enzyme solution of Example 1; type: biochemical, Corynebacterium sp. No. 20A-77 mutant (FERM-BP 108); conditions: for Activity of the purified enzyme solution (1 ml) / reductive activity (in words): NADPH, 0.1M TB pH 7, 30° C.; for Enzymatic activity: per 1 ml purified enzyme solution
T2 construct: The enzyme is an intracellular enzyme extracted from the cells of the 2KLG producing strain; made in house; host or cells: natural producer Corynebacterium sp; No. 20A-77 mutant FERM-BP 108, enzyme purified from sonicated cells; not recombinant
T2 sequence (P15339 2-277 limits assumed): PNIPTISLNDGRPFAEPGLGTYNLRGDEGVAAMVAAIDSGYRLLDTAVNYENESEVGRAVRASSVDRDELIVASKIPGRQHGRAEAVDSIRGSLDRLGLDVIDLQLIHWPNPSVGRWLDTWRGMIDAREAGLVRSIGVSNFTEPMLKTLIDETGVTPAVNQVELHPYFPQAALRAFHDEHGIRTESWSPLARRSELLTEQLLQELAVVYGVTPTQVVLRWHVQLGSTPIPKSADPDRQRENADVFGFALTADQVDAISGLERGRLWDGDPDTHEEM

25DKG-Rase [3] = biological target: T1, 25DKG-Rase; experiment: Inhibition, activation and stabilization of the enzyme; type: biochemical, genus Corynebacterium; conditions: for activation of the enzyme: addition of Mg++ or Mn++; for stabilization of the enzyme: glycerol of a high concentration (30-50%) or sucrose (1M)
Source text: It is stabilized by glycerol of a high concentration (30-50%) or sucrose (1M).

25DKG-Rase [4] = biological target: T2, 25DKG-Rase; type: biochemical, Corynebacterium sp. No. 20A-77 mutant (FERM-BP 108); conditions: 60 minutes; for product formed (paper and gas chromatography): NADPH, 0.01M TB pH 7, 30° C.
[5] = tested on: 25DKG-Rase derived from Strain K-106; experiment: Enzymatic activity of 25DKG-Rase obtained from K-106 (Example 2); type: biochemical, Corynebacterium sp. No. K-106 (ATCC 31,088)
Description: (§1) Two point nine (2.9) ml of 0.1M TB (pH 7) containing 0.3 μmoles of NADPH was placed in a quartz cubette having 1 cm optical length difference and added 1-5 μl of the enzyme solution obtained above (3) thereto. Then, to the mixture, each 0.1 ml of the various substrate solutions (0.1M) were added while being kept at 30° C. Reactivities of the enzyme on the respective substrates were determined, by means of successive measurement of the decrease in absorption at 340 nm, on the basis of the decrease for 1 minute.
(§2) The measurements of the physico-chemical properties were conducted in a manner as described in Example 1-(4) (5).
(§3) Enzymatic activities of 25DKG-Rases obtained from K-106 and T-13 were measured at varying pH from 4 to 9 (substrate: Ca-25DKG, reaction temperature: 30° C.).
(§4) The enzymatic activities of 25DKG-Rases obtained from K-106 and T-13 were measured at varying temperature (pH 7.0, substrate: Ca-25DKG).

[6] = tested on: 25DKG-Rase derived from Strain T-13; experiment: Enzymatic activity of 25DKG-Rase obtained from T-13 (Example 2); type: biochemical, Corynebacterium sp. No. T-13 (ATCC 31,089)
Description: as §1, §2, §3, §4

[7] = tested on: 25DKG-Rase derived from Strain K-106; experiment: Substrate specificity by product formation, enzyme from K-106; type: biochemical, Corynebacterium sp. No. K-106 (ATCC 31,088)
Description: (§5) The purified enzyme solution (10 μl) obtained above (3) was mixed with 25 μmoles of a substrate (Ca-25DKG or 5KF) and 3.0 ml of 0.01M TB (pH 7) containing 15 μmoles of NADPH and the mixture was allowed to react at 30° C. for 60 minutes. After the reaction, the reaction mixture was analyzed by paper chromatography (developing solvent; phenol:formic acid:water=75:4:25, chromogenic agent; AHF solution, prepared by dissolving 0.93 g of anilin and 1.66 g of phthalic acid in 100 ml of water-saturated n-butanol and heating at 105° C. for 2 minutes) and by gas chromatography (column; SE-52, carrier gas: Helium, sample; trimethylsilylated derivative). […] In Table 1, the results of quantitative determination of the products by gas chromatography are shown.
as §2

[8] = tested on: 25DKG-Rase derived from Strain T-13; experiment: Substrate specificity by product formation, enzyme from T-13; type: biochemical, Corynebacterium sp. No. T-13 (ATCC 31,089)
Description: as §5, §2

25DKG-Rase [9] = biological target: T1, 25DKG-Rase; experiment: Action, substrate specificity and Km of the purified 25DKG-Rase (general description); type: biochemical, genus Corynebacterium; conditions: in the presence of NADP or NAD

T1 sequence (P15339 whole entry): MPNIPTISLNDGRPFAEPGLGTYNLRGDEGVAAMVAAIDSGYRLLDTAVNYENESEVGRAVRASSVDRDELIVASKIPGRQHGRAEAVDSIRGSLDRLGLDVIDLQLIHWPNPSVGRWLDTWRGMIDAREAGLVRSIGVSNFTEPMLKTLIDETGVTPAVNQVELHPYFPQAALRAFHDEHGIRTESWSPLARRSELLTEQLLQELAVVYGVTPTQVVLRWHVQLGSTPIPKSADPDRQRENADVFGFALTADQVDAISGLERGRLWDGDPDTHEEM

Row | SMILES | Activity of the purified enzyme solution (1 ml) (25DKG-Rase [2]) [units] | reductive activity (in words) (25DKG-Rase [2]) | product formed (substrate specificity) [7] | product formed (substrate specificity) [8] | specificities for substrates (reducing action) (25DKG-Rase [1]) | also measured
1 | NC(=O)C1=CN([C@@H]2O[C@H](COP(=O)(O)OP(=O)(O)OC[C@H]3O[C@@H](n4cnc5c(N)ncnc54)[C@H](O)[C@@H]3O)[C@@H](O)[C@H]2O)C=CC1 [NADH, Reduced nicotinamide adenine dinucleotide] | – | – | – | – | – | reaction velocity with NADH as hydrogen donor relative to NADPH (25DKG-Rase [1]; NADH in place of NADPH): 1/250
2 | O=C(CO)[C@@H](O)[C@H](O)[C@@H](O)C(=O)O [K-5-keto-gluconate] | 0 | – | – | – | – | –
3 | [Mn+2] [Mn^++] | – | – | – | – | – | activation of the enzyme (25DKG-Rase [3]): No remarkable increase in activation
4 | O=C(O)C(=O)O [oxalate] | – | – | – | – | – | inhibition of the enzyme (25DKG-Rase [3]): inhibited
5 | O=C(CO)[C@@H](O)[C@H](O)C(=O)CO [5KF, 5-keto-D-fructose] | 94 | shows a high activity | only L-sorbose | only L-sorbose | shows specificities | Enzymatic activity (25DKG-Rase [2]; pH 4.0, 3,3-dimethylglutaric acid buffer): 2 unit/ml; Enzymatic activity (25DKG-Rase [2]; pH 5.0, 3,3-dimethylglutaric acid buffer): 33 unit/ml; Enzymatic activity (25DKG-Rase [2]; pH 6.0, Good (PIPES) buffer): 96 unit/ml; Enzymatic activity (25DKG-Rase [2]; pH 6.5, Good (PIPES) buffer): 95 unit/ml; Enzymatic activity (25DKG-Rase [2]; pH 7.0, Good (PIPES) buffer): 92 unit/ml; Enzymatic activity (25DKG-Rase [2]; pH 7.0, Tris buffer): 93 unit/ml; Enzymatic activity (25DKG-Rase [2]; pH 7.5, Tris buffer): 68 unit/ml; Enzymatic activity (25DKG-Rase [2]; pH 8.0, Tris buffer): 48 unit/ml; Enzymatic activity (25DKG-Rase [2]; pH 8.5, Tris buffer): 27 unit/ml; Enzymatic activity (25DKG-Rase [2]; pH 9.0, Tris buffer): 13 unit/ml; Concentration of the product (25DKG-Rase [4]; 10 μl enzyme solution, 25 μmoles substrate, 15 μmoles NADPH, 30° C., gas chromatography): 795 µg/mL; product formed (paper and gas chromatography) (25DKG-Rase [4]): only L-sorbose is produced; Enzymatic activity per protein ([5]; enzyme from Strain K-106, NADPH): 152 units/mg protein; Enzymatic activity ([5]; enzyme from Strain K-106, purified enzyme solution, NADPH): 38.3 units/ml; Enzymatic activity per protein ([6]; enzyme from Strain T-13, NADPH): 229 units/mg protein; Enzymatic activity ([6]; enzyme from Strain T-13, purified enzyme solution, NADPH): 39 units/ml
6 | [Mg+2] [Mg^++] | – | – | – | – | – | activation of the enzyme (25DKG-Rase [3]): No remarkable increase in activation
7 | O=C(O)C(=O)[C@@H](O)[C@H](O)[C@H](O)CO [Ca-2-keto-D-gluconate] | 0 | – | – | – | – | –
8 | OCC(O)CO [glycerol] | – | – | – | – | – | stabilization of the enzyme (25DKG-Rase [3]): stabilized
9 | O=C(O)C(=O)[C@@H](O)[C@H](O)[C@@H](O)CO [Na-2KLG] | 0 | – | – | – | – | –
10 | O=C(O)C(=O)[C@@H](O)[C@H](O)[C@@H](O)CO [2KLG, 2-keto-L-gulonic acid] | – | does not show any reductive activity | None was produced | None was produced | does not show any reducing action | production of 25DKG or 5KF from 2KLG or L-sorbose (reverse reaction) (25DKG-Rase [9]): No or not substantial production
11 | O=CC(O)CO (stereo not shown) [glyceroaldehyde] | – | – | – | – | – | inhibition of the enzyme (25DKG-Rase [3]): scarcely inhibited
12 | O=C(CO)[C@@H](O)[C@H](O)[C@@H](O)C(=O)O [5-keto-D-gluconic acid] | – | does not show any reductive activity | None was produced | None was produced | does not reduce | –
13 | O=C(CO)[C@@H](O)[C@H](O)[C@H](O)CO [D-fructose] | 0 | does not show any reductive activity | None was produced | None was produced | does not show any reducing action | –
14 | O=C(CO)[C@@H](O)[C@H](O)[C@@H](O)CO [L-sorbose] | 0 | does not show any reductive activity | None was produced | None was produced | does not show any reducing action | production of 25DKG or 5KF from 2KLG or L-sorbose (reverse reaction) (25DKG-Rase [9]): No or not substantial production
15 | OC[C@H]1O[C@@](CO)(O[C@H]2O[C@H](CO)[C@@H](O)[C@H](O)[C@H]2O)[C@@H](O)[C@@H]1O [sucrose] | – | – | – | – | – | stabilization of the enzyme (25DKG-Rase [3]): stabilized
16 | O=C(O)C(=O)[C@@H](O)[C@H](O)C(=O)CO [25DKG, 2,5-diketo-D-gluconic acid] | – | shows a high activity | – | – | shows specificities | product formed (paper and gas chromatography) (25DKG-Rase [4]): only 2KLG is produced; Km ([5]; purified enzyme solution of K-106): 1700 ± 1000 µM; Km ([6]; purified enzyme solution of T-13): 2600 ± 1000 µM; 25DKG of the substrate reduced to 2KLG (25DKG-Rase [1]; 30° C. for 60-120 minutes): ≥ 90%
17 | O=C(O)C(=O)[C@@H](O)[C@H](O)[C@H](O)CO [2-keto-D-gluconic acid] | – | does not show any reductive activity | None was produced | None was produced | does not show any reducing action | –
